According to patent US5061794A, “Cephalosporin derivatives, and antibacterial agents” (priority 1986, dated 1991):
Values after ≈ are worked out from the molar mass of the structure shown. Like-named read-outs stand apart in the source and are kept apart here.

What was measured:
[1] = system: A. calcoaceticus No. 4; test: in vitro antibacterial activity, agar plate dilution method (MIC); type: cell-based, Acinetobacter calcoaceticus; conditions: Acinetobacter calcoaceticus, NO.4, 16 h, A. calcoaceticus No. 4; 10^6 CFU/ml; read-out: Minimum Inhibitory Concentration (MIC)
Outline: (§1)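 Inoculum 10^6 CFU/ml; medium Mueller Hinton agar with graded antibiotic; 37° C./16 h; endpoint MIC (μg/ml).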

[2] = system: E. coli CSH2 (RK1); test: microbe, parasite or virus in culture; type: cell-based; conditions: Escherichia coli, 16 h, read-out: Minimum Inhibitory Concentration (MIC), *E. coli CSH2 (RK1), lactamase-producing strain; 10^6 CFU/ml
Outline: as §1

[3] = system: E. coli CSH(RE45); test: microbe, parasite or virus in culture; type: cell-based; conditions: Escherichia coli, 16 h, read-out: Minimum Inhibitory Concentration (MIC), *E. coli CSH(RE45), lactamase-producing strain; 10^6 CFU/ml
Outline: as §1

[4] = system: Enterobacter cloacae GN 5797; test: β-lactamase inducibility; type: cell-based; conditions: antibiotic at 50, 10 and 1 μg/ml; cephaloridine as substrate
Method: The assay method for induction of β-lactamase by β-latam antibiotics was as follows:
The test organism, Enterobacter cloacae GN 5797, was grown overnight in Mueller Hinton broth (Dlfco Laboratories, Detroit, Mich.) at 37° C. The culture was diluted 10-fold into 20 ml of the flesh medium and incubated with shaking at 37° C. After 2 hours of incubation, antibiotics were added to final concentrations of 50 μg/ml, 10 μg/ml and 1 μg/ml, and the incubation was continued. At 1 hour intervals after the addition of antibiotic, 3 ml of sample was taken, and immediately added with 0.1 ml of 50 mM sodium azide. The cells were harvested and washed with 50 mM phosphate buffer (ph 7.0). The cells were suspended in 5 ml of 50 mM phosphate buffer and disrupted with a sonicater in an ice-water bath. The broken cells were centrifuged at 16,500 G for 40 minutes at 4° C., and the resulting supernatant fluid was used as the crude enzyme. β-Lactamase activity was determined by a sopectrophotometric method (Antmicrob. Agents Chemother. 17, 355-358, 1980) with cephaloridine as substrate. The concentration of protein was determined by the method of Lowry (J. Biol. Chem. 193, 265-275, 1951). […] As a representative example, the compound of EXAMPLE 50 was administered to mice by means of subcutaneous administration, and the concentration in the blood was measured.

[5] = system: E. coli NIHJ JC2; test: in vitro antibacterial activity, agar plate dilution method (MIC); type: cell-based; conditions: Escherichia coli, NIHJJC2, 16 h, read-out: Minimum Inhibitory Concentration (MIC), E. coli NIHJ JC2, 10^6 CFU/ml, 37° C.
Outline: as §1

[6] = system: E. cloacae 963; test: as above; type: cell-based; conditions: 10^6 CFU/ml
Outline: as §1

[7] = system: P. vulgaris HX-19; test: as above; type: cell-based; conditions: Proteus vulgaris, HX19, 16 h, read-out: Minimum Inhibitory Concentration (MIC)
Outline: as §1

[8] = system: E. cloacae Nek 39; test: as above; type: cell-based; conditions: Enterobacter cloacae, NEK39, 16 h, read-out: Minimum Inhibitory Concentration (MIC), *E. cloacae Nek 39, lactamase-producing strain; 10^6 CFU/ml
Outline: as §1

[9] = system: K. pneumoniae PCI-602; test: as above; type: cell-based; conditions: Klebsiella pneumoniae, PCI602, 16 h, 10^6 CFU/ml
Outline: as §1

[10] = system: S. marcescens IAM 1184; test: as above; type: cell-based; conditions: Serratia marcescens, IAM1184, 16 h, S. marcescens IAM 1184; 10^6 CFU/ml; read-out: Minimum Inhibitory Concentration (MIC)
Outline: as §1

[11] = system: S. marcescens No. 16-2; test: as above; type: cell-based; conditions: Serratia marcescens, NO.162, 16 h
Outline: as §1

[12] = system: E. coli GN5482; test: as above; type: cell-based; conditions: Escherichia coli, GN5482, 16 h
Outline: as §1

[13] = system: K. oxytoca GN10650; test: as above; type: cell-based; conditions: Klebsiella oxytoca, GN10650, 16 h, read-out: Minimum Inhibitory Concentration (MIC), *K. oxytoca GN10650, lactamase-producing strain; 10^6 CFU/ml
Outline: as §1

[14] = system: P. vulgaris No. 33; test: as above; type: cell-based; conditions: Proteus vulgaris, NO.33, 16 h, read-out: Minimum Inhibitory Concentration (MIC), *P. vulgaris No. 33, lactamase-producing strain; 10^6 CFU/ml
Outline: as §1

[15] = system: M. morganii GN5407; test: as above; type: cell-based; conditions: Morganella morganii, GN5407, 16 h, read-out: Minimum Inhibitory Concentration (MIC), *M. morganii GN5407, lactamase-producing strain; 10^6 CFU/ml
Outline: as §1

[16] = system: S. aureus 209P NIHJ-JC1; test: as above; type: cell-based; conditions: Staphylococcus aureus, 16 h, read-out: Minimum Inhibitory Concentration (MIC)
Outline: as §1

[17] = system: K. pneumoniae No. 42; test: as above; type: cell-based; conditions: Klebsiella pneumoniae, NO.42, 16 h, read-out: Minimum Inhibitory Concentration (MIC), *K. pneumoniae No. 42, lactamase-producing strain; 10^6 CFU/ml
Outline: as §1

[18] = system: Ps. aeruginosa AK 109; test: as above; type: cell-based, Pseudomonas aeruginosa; conditions: Pseudomonas aeruginosa, AK109, 16 h, read-out: Minimum Inhibitory Concentration (MIC)
Outline: as §1

[19] = system: Ps. aeruginosa IF03445; test: as above; type: cell-based, Pseudomonas aeruginosa; conditions: Pseudomonas aeruginosa, IF03445, 16 h, read-out: Minimum Inhibitory Concentration (MIC), Ps. aeruginosa IF03445; 10^6 CFU/ml
Outline: as §1

[20] = system: Ps. aeruginosa AKR17; test: as above; type: cell-based, Pseudomonas aeruginosa; conditions: Pseudomonas aeruginosa, AKR17, 16 h, read-out: Minimum Inhibitory Concentration (MIC), Ps. aeruginosa AKR17; 10^6 CFU/ml
Outline: as §1

[21] = system: Ps. cepacia 23; test: as above; type: cell-based, Pseudomonas cepacia; conditions: Burkholderia cepacia, 16 h; Ps. cepacia 23; 10^6 CFU/ml; read-out: Minimum Inhibitory Concentration (MIC)
Outline: as §1

[22] = Enterobacter cloacae, 963, 16 h, read-out: Minimum Inhibitory Concentration (MIC), E. cloacae 963
[23] = read-out: Minimum Inhibitory Concentration (MIC), K. pneumoniae PCI-602
[24] = read-out: Minimum Inhibitory Concentration (MIC)
[25] = S. aureus 209P NIHJ-JC1, 10^6 CFU/ml, 37° C., 16 hours
[26] = Ps. aeruginosa AK 109, 10^6 CFU/ml
[27] = Enterobacter cloacae, 16 h, E. cloacae 963, read-out: Minimum Inhibitory Concentration (MIC)
[28] = read-out: Minimum Inhibitory Concentration (MIC), *S. marcescens No. 16-2, lactamase-producing strain, 10^6 CFU/ml

Structure (SMILES) | MIC [1] | MIC [2] | MIC [3] | β-lactamase inducibility [4] | MIC [5] | MIC [6, 22] | MIC ([7]; P. vulgaris HX-19, 10^6 CFU/ml) | MIC [8] | MIC [9, 23] | MIC [10] | MIC [11, 24] | MIC [12, 24] | MIC [13] | MIC [14] | MIC [15] | MIC [16, 25] | MIC [17] | MIC [19] | MIC [20] | MIC [21] | further results
CC(C)(O/N=C(\C(=O)N[C@@H]1C(=O)N2C(C(=O)O)=C(CSc3nnc(-c4ccc(O)c(O)c4)o3)CS[C@H]12)c1csc(N)n1)C(=O)O [Ex. 11, disodium 7β-[2-(2-aminothiazol-4-yl)-(1-carboxylate-1-methylethoxyimino)acetamido]-3-[5(3,4-dihydroxyphenyl)-1,3,4-oxadiazol-2-yl]thiomethyl-3-cephem-4-carboxylate] | 0.05 µg/mL | < 0.006 µg/mL | 1.56 µg/mL | no substantial β-lactamase-inducing activity was observed | 0.1 µg/mL | 0.025 µg/mL | < 0.006 µg/mL | 0.05 µg/mL | < 0.006 µg/mL | 0.0125 µg/mL | 0.39 µg/mL | 0.39 µg/mL | 0.0125 µg/mL | 0.025 µg/mL | 0.05 µg/mL | 25 µg/mL | 0.025 µg/mL | 0.39 µg/mL | 1.56 µg/mL | < 0.006 µg/mL | MIC [18, 26]: 0.2 µg/mL
CC(C)(O/N=C(\C(=O)N[C@@H]1C(=O)N2C(C(=O)O)=C(CSc3nnc(-c4ccc(O)c(O)c4)s3)CS[C@H]12)c1csc(N)n1)C(=O)O [Ex. 34] | 0.05 µg/mL (≈ 0.0721 µM) | < 0.006 µg/mL | < 0.006 µg/mL | no substantial β-lactamase-inducing activity was observed | 0.1 µg/mL (≈ 0.144 µM) |  | < 0.006 µg/mL | 0.1 µg/mL (≈ 0.144 µM) |  | 0.025 µg/mL (≈ 0.036 µM) | 0.1 µg/mL (≈ 0.144 µM) |  | 0.025 µg/mL (≈ 0.036 µM) | 0.025 µg/mL (≈ 0.036 µM) | 0.05 µg/mL (≈ 0.0721 µM) |  | 0.0125 µg/mL (≈ 0.018 µM) | 0.39 µg/mL (≈ 0.562 µM) | 1.56 µg/mL (≈ 2.25 µM) | < 0.006 µg/mL | MIC [6, 27]: 0.1 µg/mL (≈ 0.144 µM); MIC ([9]; K. pneumoniae PCI-602, read-out: Minimum Inhibitory Concentration (MIC)): 0.0125 µg/mL (≈ 0.018 µM); MIC ([12]; read-out: Minimum Inhibitory Concentration (MIC), *E. coli GN5482, lactamase-producing strain, 10^6 CFU/ml): 0.78 µg/mL (≈ 1.12 µM); MIC [16]: 12.5 µg/mL (≈ 18 µM); MIC [18, 26]: 0.1 µg/mL (≈ 0.144 µM)
CC(C)(ON=C(C(=O)NC1C(=O)N2C(C(=O)O)=C(CSc3nc(-c4ccc(O)c(O)c4)cs3)CSC12)c1csc(N)n1)C(=O)O (stereo not drawn) [Ex. 44, disodium 7β-[2-(2-aminothiazol-4-yl)-2-(1-carboxylate-1-methylethoxyimino)acetamido]-3-[4-(3,4-dihydroxyphenyl)thiazol-2-yl]thiomethyl-3-cephem-4-carboxylate] | 0.2 µg/mL | 0.0125 µg/mL | 0.0125 µg/mL | no substantial β-lactamase-inducing activity was observed | 0.2 µg/mL |  |  | 0.1 µg/mL | < 0.006 µg/mL | 0.05 µg/mL |  | 0.39 µg/mL | 0.025 µg/mL | 0.025 µg/mL | 0.05 µg/mL |  | 0.1 µg/mL | 0.39 µg/mL | 1.56 µg/mL | < 0.006 µg/mL | MIC [6, 27]: 0.1 µg/mL; MIC [7]: 0.0125 µg/mL; MIC [11, 28]: 1.56 µg/mL; MIC [16]: 12.5 µg/mL; MIC [18]: 0.39 µg/mL
CC(C)(O/N=C(\C(=O)N[C@@H]1C(=O)N2C(C(=O)O)=C(CSc3ncc(-c4ccc(O)c(O)c4)o3)CS[C@H]12)c1csc(N)n1)C(=O)O [Ex. 64, disodium 7β-[2-(2-aminothiazol-4-yl)-2-(1-carboxylate-1-methylethoxyimino)acetamido]-3-[5-(3,4-dihydroxyphenyl)oxazol-2-yl]thiomethyl-3-cephem-4-carboxylate] | 0.2 µg/mL | 0.0125 µg/mL | 0.025 µg/mL | no substantial β-lactamase-inducing activity was observed | 0.78 µg/mL | 0.39 µg/mL |  | 0.2 µg/mL | 0.0125 µg/mL | 0.1 µg/mL |  | 3.12 µg/mL | 0.1 µg/mL | 0.025 µg/mL | 0.1 µg/mL | 25 µg/mL | 0.05 µg/mL | 0.78 µg/mL | 1.56 µg/mL | < 0.006 µg/mL | MIC [7]: 0.0125 µg/mL; MIC [11, 28]: 1.56 µg/mL; MIC [18]: 0.39 µg/mL
